Tests used:
[1] = Liver microsome stability, human; assay type: in vitro ADME; conditions: human liver microsomes; for Remaining % (60 min): 37° C.; for CLint scaled: read-out: Intrinsic clearance
Method: The purpose of research in the present experiment is assessing phase I metabolic stability of the sample for test in CD-1 mice, SD rats, and human liver microsomes.
The animals and human liver microsomes used in this test system were purchased from BD Gentest, Xenotech, Corning or BioreclamationIVT, and stored in a refrigerator at −80° C. before use.
The sample for test and control were incubated together with the microsomes under a condition of 37° C. for 60 minutes, and a cold acetonitrile solution (or other organic solvents) containing an internal standard substance was added at a designated time point to terminate the reaction. After centrifugation, a resultant supernatant was assayed in a semiquantitative manner through liquid chromatography tandem mass spectrometry (LC/MS/MS). Software Analyst (AB Sciex, Framingham, Mass., USA) was used for processing retention time of analyte and internal standard, and achieving chromatogram collection, and chromatogram integration
An in vitro elimination rate constant ke of the sample was obtained by converting a ratio of the sample to a peak area of the internal standard to remaining percentage, to calculate an in vitro elimination rate and half-life of the sample for test.

CYP1A2 = target: T1, CYP1A2 (Homo sapiens, UniProt P05177); experiment: Inhibition on human liver microsome CYP1A2; assay type: in vitro ADME; conditions: human liver microsomes; for IC50: 5-in-1 probe substrate
T1 construct: tissue Corning Inc. or XenoTech, LLC. or other suppliers; host or cells: mixed human liver microsomes
T1 sequence (P05177 1-516): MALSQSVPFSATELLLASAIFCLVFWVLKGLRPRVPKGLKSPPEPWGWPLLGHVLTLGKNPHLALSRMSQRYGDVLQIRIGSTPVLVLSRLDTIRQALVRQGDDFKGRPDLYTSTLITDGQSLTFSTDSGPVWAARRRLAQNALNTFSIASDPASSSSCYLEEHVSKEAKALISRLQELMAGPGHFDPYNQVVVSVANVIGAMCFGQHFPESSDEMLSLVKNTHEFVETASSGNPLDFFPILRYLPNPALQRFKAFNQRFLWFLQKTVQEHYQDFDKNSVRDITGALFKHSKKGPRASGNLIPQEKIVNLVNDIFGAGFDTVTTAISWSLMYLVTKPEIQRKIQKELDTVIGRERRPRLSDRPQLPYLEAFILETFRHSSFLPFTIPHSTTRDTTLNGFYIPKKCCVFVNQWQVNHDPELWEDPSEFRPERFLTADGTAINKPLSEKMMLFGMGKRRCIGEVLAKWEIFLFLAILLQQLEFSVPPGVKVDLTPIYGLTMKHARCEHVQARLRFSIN
Method: (§1) The research project aimed at evaluating inhibitory ability of a sample for test on human liver microsome cytochrome P450 isozymes (CYP1A2, CYP2C9, CYP2C19, CYP2D6, and CYP3A4) with use of a 5-in-1 probe substrate for CYP isozymes.
(§2) Mixed human liver microsomes (HLM) were purchased from Corning Inc. (Steuben, N.Y., USA) or XenoTech, LLC. (Lenexa, Kans., USA) or other suppliers, and stored in a condition below −70° C. before use.
(§3) Diluted working solutions of the sample for test in serial concentrations were added to an incubation system containing the human liver microsomes, probe substrate, and accessory factors of a cycling system, and a control containing no sample for test but a solvent was taken as a control for enzymatic activity (100%). Concentration of metabolites generated by the probe substrate in the sample was measured with a method of liquid chromatography-tandem mass spectrometry (LC-MS/MS). Nonlinear regression analysis of mean percentage activity vs concentration of the sample for test was carried out using SigmaPlot (V.11). An IC^50 value was calculated through a three-parameter or four-parameter inflection logarithmic equation.

CYP3A4 = target: T2, CYP3A4 (Homo sapiens, UniProt P08684); experiment: Inhibition on human liver microsome CYP3A4; assay type: in vitro ADME; conditions: human liver microsomes; for IC50: 5-in-1 probe substrate
T2 construct: tissue Corning Inc. or XenoTech, LLC. or other suppliers; host or cells: mixed human liver microsomes
Method: as §1, §2, §3

mice colon cancer CT26 = conditions: according to document reports; cited from earlier work

T2 sequence (P08684 whole entry): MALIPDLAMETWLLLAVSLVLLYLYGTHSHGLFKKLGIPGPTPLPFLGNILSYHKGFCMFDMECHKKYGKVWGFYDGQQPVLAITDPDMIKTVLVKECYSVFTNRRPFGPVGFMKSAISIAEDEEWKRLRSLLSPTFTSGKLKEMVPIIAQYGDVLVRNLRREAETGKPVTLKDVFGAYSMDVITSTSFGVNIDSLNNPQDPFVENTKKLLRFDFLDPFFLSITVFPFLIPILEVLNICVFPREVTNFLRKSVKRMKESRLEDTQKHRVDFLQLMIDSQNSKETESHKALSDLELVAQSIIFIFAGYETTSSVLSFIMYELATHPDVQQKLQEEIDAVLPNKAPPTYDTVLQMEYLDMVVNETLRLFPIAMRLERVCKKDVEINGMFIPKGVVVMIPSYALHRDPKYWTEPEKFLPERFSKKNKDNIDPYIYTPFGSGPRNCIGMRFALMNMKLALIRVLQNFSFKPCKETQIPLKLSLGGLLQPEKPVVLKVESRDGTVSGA

SMILES	metabolic stability in words [1]	Remaining % (60 min) [1]	CLint scaled [1]	IC50 (CYP1A2)	IC50 (CYP3A4)	inhibiting effect on CYP1A2 in words (CYP1A2)	inhibiting effect on CYP3A4 in words (CYP3A4)	growth of tumors in mice colon cancer CT26 model (mice colon cancer CT26)
CC(=O)NCCSc1nonc1/C(=N/O)Nc1ccc(F)c(Br)c1 [Compound 0227]	metabolized in a moderate manner	56.9%	15.3 mL/min/kg	13 µM	39.2 µM	–	–	–
NC(=O)NCCSc1nonc1/C(=N/O)Nc1ccc(F)c(Br)c1 [Compound 0231]	metabolized in a relatively steady manner	81.6%	< 8.6 mL/min/kg	> 50 µM	> 50 µM	relatively weak effect	relatively weak effect	–
NS(=O)(=O)NCCNc1nonc1C(=NO)Nc1ccc(F)c(Br)c1 [Compound 360, INCB024360, reference compound]	–	–	–	–	–	–	–	effectively inhibit growth of tumors

— US20190169140A1, “IDO1 INHIBITOR AND PREPARATION METHOD AND APPLICATION THEREOF” (SHANDONG LUYE PHARMACEUTICAL CO., LTD., priority 2016, published 2019)
